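Exposure lasted 48 hours, with cells grown in 96-well plates and compounds tested at five concentrations. GI50: concentration for 50% inhibition of growth.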 The source made the active and inactive calls. Cut-off read from the data, not from the text of the source: active = GI50 up to about 1.1 µM and inactive = higher.
Tests used:
Assay in all cases: NCI anticancer screen, dose series, 48 h
BT-549 = tested on: BT-549
CAKI-1 = tested on: CAKI-1
HCT-116 = tested on: HCT-116
M14 = tested on: M14
OVCAR-5 = tested on: OVCAR-5
SF-539 = tested on: SF-539
SNB-19 = tested on: SNB-19
SNB-75 = tested on: SNB-75
UO-31 = tested on: UO-31

Measured: GI50

COc1cccc2c1[C@H](OC)[C@]13O[C@@]1(C2=O)[C@H](O)[C@H](C)[C@@](O)(C(=O)[C@@H]1O[C@H]1C)[C@@H]3O
active: BT-549 289 nM | CAKI-1 273 nM | HCT-116 318 nM | M14 221 nM | OVCAR-5 297 nM | SF-539 271 nM | SNB-19 286 nM | SNB-75 233 nM | UO-31 249 nM
